Assays:
in vitro = details: human
L. pneumophila biofilm [1] = format: cell-based, Legionella pneumophila 155; details: 0.1 mM polyamino-phenolic ligand, 3-day-old biofilm treated 3 days, tap water, 37°C
[2] = test system: L. pneumophila/E. coli biofilm; format: cell-based, Legionella pneumophila 155 / Escherichia coli; details: 0.1 mM polyamino-phenolic ligand, 3-day-old biofilm treated 3 days
[3] = test system: L. pneumophila/A. hydrophila biofilm; format: cell-based, Legionella pneumophila 155 / Aeromonas hydrophila; details: 0.1 mM polyamino-phenolic ligand added at inoculum, 3-day contact time
[4] = test system: L. pneumophila/E. coli biofilm; format: cell-based, Legionella pneumophila 155 / Escherichia coli; details: 0.1 mM polyamino-phenolic ligand added at inoculum, 3-day contact time
planktonic E. coli = format: cell-based, Escherichia coli
planktonic P. aeruginosa = format: cell-based, Pseudomonas aeruginosa
planktonic A. hydrophila = format: cell-based, Aeromonas hydrophila
planktonic K. pneumoniae = format: cell-based, Klebsiella pneumoniae
L. pneumophila biofilm [5] = format: cell-based, Legionella pneumophila 155; details: 0.1 mM polyamino-phenolic ligand added at inoculum, 3-day contact time
[6] = test system: planktonic L. pneumophila; format: cell-based, Legionella pneumophila; details: 0.1 mM polyamino-phenolic ligand, 24 h, PBS, 37°C
[7] = test system: L. pneumophila/P. aeruginosa biofilm; format: cell-based, Legionella pneumophila 155 / Pseudomonas aeruginosa; details: 0.1 mM polyamino-phenolic ligand added at inoculum, 3-day contact time
[8] = test system: L. pneumophila/K. pneumonia biofilm; format: cell-based, Legionella pneumophila 155 / Klebsiella pneumoniae; details: 0.1 mM polyamino-phenolic ligand, 3-day-old biofilm treated 3 days
[9] = test system: L. pneumophila/K. pneumoniae biofilm; format: cell-based, Legionella pneumophila 155 / Klebsiella pneumoniae; details: 0.1 mM polyamino-phenolic ligand added at inoculum, 3-day contact time
[10] = test system: five-species biofilm (L. pneumophila/P. aeruginosa/A. hydrophila/E. coli/K. pneumoniae); format: cell-based; details: 0.1 mM polyamino-phenolic ligand added at inoculum, 3-day contact time
[11] = test system: L. pneumophila/A. hydrophila biofilm; format: cell-based, Legionella pneumophila 155 / Aeromonas hydrophila; details: 0.1 mM polyamino-phenolic ligand, 3-day-old biofilm treated 3 days

| SMILES | viability (in vitro) [%] | biofilm reduction (degradation) (L. pneumophila biofilm [1]) [%] | effect on number of viable planktonic cells (planktonic E. coli) | effect on number of viable planktonic cells (planktonic P. aeruginosa) | effect on number of viable planktonic cells (planktonic A. hydrophila) | effect on number of viable planktonic cells (planktonic K. pneumoniae) | effect on number of viable planktonic cells [6] | also measured |
| --- | --- | --- | --- | --- | --- | --- | --- | --- |
| NCCN(CCN)Cc1cccc(-c2cccc(CN(CCN)CCN)c2O)c1O [Bfden, 3,3′-bis(N,N-bis(2-aminoethyl)aminomethyl)-2,2′-dihydroxybiphenyl] | 97 |  |  |  |  |  |  |  |
| NCCNCCNCc1cc(-c2ccc(O)c(CNCCNCCN)c2)ccc1O [Bisom, 3,3′-bis(N-(N-(2-aminoethyl)-2-aminoethyl)aminomethyl)-4,4′-dihydroxybiphenyl] | 72 |  |  |  |  |  |  |  |
| NCCN(CCN)Cc1cc(-c2ccc(O)c(CN(CCN)CCN)c2)ccc1O [Dimo, 3,3′-bis(N,N-bis(2-aminoethyl)aminomethyl)-4,4′-dihydroxybiphenyl] | 58 | 27 |  |  |  |  |  |  |
| Oc1c2cccc1CNCCN(CCNCCCNCCNCCCNCCN1CCNCc3cccc(c3O)CNCC1)CCNC2 [Double Macrophen, 1,16-bis(3,6,9-triaza-15-hydroxybicyclo(9.3.1)pentadeca-11,13,1^15-trien-6-yl)-3,7,10,14-tetraazahexadecane] | 95 | 32 | did not reduce the number of viable cells | did not reduce the number of viable cells | did not reduce the number of viable cells | did not reduce the number of viable cells | did not reduce the number of viable cells | biofilm reduction (degradation) [2]: 39%; biofilm formation inhibition [3]: 34%; biofilm formation inhibition [4]: 42%; biofilm formation inhibition (L. pneumophila biofilm [5]): 48% |
| NCCN1CCNCc2cccc(c2O)CNCC1 [Macrophen, 2-(3,6,9-triaza-15-hydroxybicyclo(9.3.1)pentadeca-11,13,1^15-trien-6-yl)ethylamine] |  | 27 | did not reduce the number of viable cells | did not reduce the number of viable cells | did not reduce the number of viable cells | did not reduce the number of viable cells | did not reduce the number of viable cells | biofilm formation inhibition [7]: 26%; biofilm reduction (degradation) [8]: 33%; biofilm formation inhibition [9]: 24%; biofilm formation inhibition [10]: 27%; biofilm reduction (degradation) [11]: 33% |

From article PMC4783402 (Frontiers in Microbiology, 2016)
